Experimental data published in patent US8278337B2, “Substituted pyridines that are JNK inhibitors” (Merck Sharp & Dohme, priority 2006, dated 2012).
“And” between values parts separate entries of the source, which are not always exact repeats. Equal values may be shown once.

The molecules below were run against JNK1 (Homo sapiens, UniProt P45983) (assay: DELFIA kinase assay, JNK1). Settings: DELFIA, biotinylated GST-ATF2 substrate, 10 minute pre-incubation, final ATP 7 uM.
Format: biochemical
Summary of the method: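 Enzyme (2 nM JNK1) was preincubated 10 min with 0–100 μM compound in HEPES pH 7.3 with 5% DMSO, then reacted 30 min at room temperature with biotinylated GST-ATF2 (6 ug/mL). Final ATP was 7 uM for JNK1, 4 uM for JNK2 and 2 uM for JNK3. Phospho-ATF2 was detected by DELFIA europium fluorescence (ex 340, em 615 nm).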

JNK1, sequence (P45983 whole entry, species assumed): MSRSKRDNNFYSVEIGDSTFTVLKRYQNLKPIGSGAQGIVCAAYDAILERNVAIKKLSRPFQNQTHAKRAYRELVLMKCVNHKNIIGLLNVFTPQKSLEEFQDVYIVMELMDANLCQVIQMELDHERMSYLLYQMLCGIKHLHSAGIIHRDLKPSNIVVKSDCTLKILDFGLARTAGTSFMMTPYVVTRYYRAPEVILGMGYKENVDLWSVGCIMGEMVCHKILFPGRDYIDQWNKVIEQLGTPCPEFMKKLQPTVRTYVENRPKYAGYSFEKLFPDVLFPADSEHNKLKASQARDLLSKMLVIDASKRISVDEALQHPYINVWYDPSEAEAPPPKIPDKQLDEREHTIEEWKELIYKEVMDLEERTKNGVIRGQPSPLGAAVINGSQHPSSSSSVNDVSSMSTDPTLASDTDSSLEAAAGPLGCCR

Row | SMILES | IC50
1 | CS(=O)(=O)c1ccc(CNC(=O)c2cccc(-c3ccccc3F)n2)cc1 [Compound 316] | > 1000 nM and 1030 to 10000 nM
2 | CS(=O)(=O)c1ccc(CNC(=O)c2cccc(-c3ccccn3)n2)cc1 [Compound 317] | > 1000 nM and 1030 to 10000 nM
3 | CS(=O)(=O)c1ccc(CNC(=O)c2cccc(-n3cc(I)cn3)n2)cc1 [Compound 318] | 102 to 959 nM
4 | CCOC(=O)c1cnn(-c2cccc(C(=O)NCc3ccc(S(C)(=O)=O)cc3)n2)c1 [Compound 319] | > 1000 nM and 1030 to 10000 nM
5 | Cc1cc(C)n(-c2cccc(C(=O)NCc3ccc(S(C)(=O)=O)cc3)n2)n1 [Compound 320] | > 1000 nM and 1030 to 10000 nM
6 | CS(=O)(=O)c1ccc(CNC(=O)c2cccc(-n3cc(-c4ccc(F)cc4)cn3)n2)cc1 [Compound 321] | > 1000 nM and 1030 to 10000 nM
7 | CS(=O)(=O)c1ccc(CNC(=O)c2cccc(-n3ncc4ccccc43)n2)cc1 [Compound 322] | 102 to 959 nM
8 | Cc1cnn(-c2cccc(C(=O)NCc3ccc(S(C)(=O)=O)cc3)n2)c1 [Compound 323] | 1030 to 10000 nM and > 1000 nM
9 | Cc1ccn(-c2cccc(C(=O)NCc3ccc(S(C)(=O)=O)cc3)n2)n1 [Compound 324] | 1030 to 10000 nM and > 1000 nM
10 | Cc1ccnn1-c1cccc(C(=O)NCc2ccc(S(C)(=O)=O)cc2)n1 [Compound 325] | 1030 to 10000 nM and > 1000 nM
11 | CS(=O)(=O)c1ccc(CNC(=O)c2cccc(-n3cncn3)n2)cc1 [Compound 326] | 1030 to 10000 nM and > 1000 nM
12 | CS(=O)(=O)c1ccc(CNC(=O)c2cccc(-n3cnc(Br)c3)n2)cc1 [Compound 327] | 1030 to 10000 nM and > 1000 nM
13 | CS(=O)(=O)c1ccc(CNC(=O)c2cccc(-n3cc(Br)cn3)n2)cc1 [Compound 328] | 102 to 959 nM
14 | COc1ccc(F)cc1-c1cccc(C(=O)NCc2ccc(S(C)(=O)=O)cc2)n1 [Compound 329] | 102 to 959 nM
15 | COc1cccc(-c2cccc(C(=O)NCc3ccc(S(C)(=O)=O)cc3)n2)c1F [Compound 330] | 102 to 959 nM
16 | COc1ccc(-c2cccc(C(=O)NCc3ccc(S(C)(=O)=O)cc3)n2)c(F)c1 [Compound 331] | 102 to 959 nM
17 | CS(=O)(=O)c1ccc(CNC(=O)c2cccc(-c3ccc4c(c3)OCO4)n2)cc1 [Compound 332] | 102 to 959 nM
18 | Cn1cc(-c2cccc(C(=O)NCc3ccc(S(C)(=O)=O)cc3)n2)cn1 [Compound 333] | > 1000 nM and 1030 to 10000 nM
19 | CS(=O)(=O)c1ccc(CNC(=O)c2cccc(-n3cc(-c4ccccn4)cn3)n2)cc1 [Compound 334] | 102 to 959 nM
20 | CS(=O)(=O)c1ccc(CNC(=O)c2cccc(-n3cc(-c4cnccn4)cn3)n2)cc1 [Compound 335] | 102 to 959 nM

Row | SMILES | IC50
21 | CC(C)(C)c1cnn(-c2cccc(C(=O)NCc3ccc(S(C)(=O)=O)cc3)n2)c1 [Compound 336] | 102 to 959 nM
22 | CC(C)CNc1cccc(C(=O)NCc2ccc(S(C)(=O)=O)cc2)n1 [Compound 337] | > 1000 nM and 1030 to 10000 nM
23 | CC(C)CN(C)c1cccc(C(=O)NCc2ccc(S(C)(=O)=O)cc2)n1 [Compound 338] | > 1000 nM and 1030 to 10000 nM
24 | CS(=O)(=O)c1ccc(CNC(=O)c2cccc(-c3cc4ccccc4[nH]3)n2)cc1 [Compound 339] | > 1000 nM and 1030 to 10000 nM
25 | O=C(NCc1cnn(-c2cccc(C(F)(F)F)c2)c1)c1cccc(N2CCCC2)n1 [Compound 343] | 1030 to 10000 nM and > 1000 nM
26 | O=C(NCc1cnn(-c2cccc(C(F)(F)F)c2)c1)c1cccc(N2Cc3ccccc3C2)n1 [Compound 344] | > 1000 nM
27 | O=C(NCc1cnn(-c2cccc(C(F)(F)F)c2)c1)c1cccc(N2CCOCC2)n1 [Compound 345] | 1030 to 10000 nM and > 1000 nM
28 | O=C(NCc1cnn(-c2cccc(C(F)(F)F)c2)c1)c1cccc(N2CCC(c3ccccn3)C2)n1 (centres unmarked) [Compound 346] | 1030 to 10000 nM and > 1000 nM
29 | O=C(NCc1cnn(-c2cccc(C(F)(F)F)c2)c1)c1cccc(-c2cc3ccccc3[nH]2)n1 [Compound 347] | 1030 to 10000 nM and > 1000 nM
30 | CC(=O)Nc1cccc(C(=O)NCc2cnn(-c3cccc(C(F)(F)F)c3)c2)n1 [Compound 353] | 102 to 959 nM
31 | CC(C)C(=O)Nc1cccc(C(=O)NCc2cnn(-c3cccc(C(F)(F)F)c3)c2)n1 [Compound 354] | 102 to 959 nM
32 | COC(=O)Nc1cccc(C(=O)NCc2cnn(-c3cccc(C(F)(F)F)c3)c2)n1 [Compound 355] | 102 to 959 nM
33 | NC(=O)Nc1cccc(C(=O)NCc2cnn(-c3cccc(C(F)(F)F)c3)c2)n1 [Compound 356] | 102 to 959 nM
34 | CNc1cccc(C(=O)NCc2cnn(-c3cccc(C(F)(F)F)c3)c2)n1 [Compound 362] | 102 to 959 nM
35 | CC(=O)N(C)c1cccc(C(=O)NCc2cnn(-c3cccc(C(F)(F)F)c3)c2)n1 [Compound 363] | > 1000 nM and 1030 to 10000 nM
36 | CC(C)C(=O)N(C(=O)C(C)C)c1cccc(C(=O)NCc2cnn(-c3cccc(C(F)(F)F)c3)c2)n1 [Compound 364] | > 1000 nM and 1030 to 10000 nM
37 | CC(C)C(=O)N(C)c1cccc(C(=O)NCc2cnn(-c3cccc(C(F)(F)F)c3)c2)n1 [Compound 365] | > 1000 nM and 1030 to 10000 nM
38 | CCOC(=O)N1CCC(NC(=O)c2cccc(C(=O)NCc3ccc(S(C)(=O)=O)cc3)c2)CC1 [Compound 371] | > 1000 nM
39 | CCOC(=O)N1CCC(NC(=O)c2cccc(C(=O)NCc3ccc4c(c3)OCO4)c2)CC1 [Compound 372] | > 1000 nM
40 | CS(=O)(=O)c1ccc(CNC(=O)c2cccc(-c3nc4ccccc4[nH]3)n2)cc1 [Compound 376] | 102 to 959 nM

Row | SMILES | IC50
41 | CC(C)NC(=O)c1cccc(-c2nc3ccccc3[nH]2)n1 [Compound 377] | > 1000 nM and 1030 to 10000 nM
42 | O=C(NCc1nc2ccccc2s1)c1cccc(-c2nc3ccccc3[nH]2)n1 [Compound 378] | 102 to 959 nM
43 | COc1cccc2ccc(C(=O)NCc3ccc(S(C)(=O)=O)cc3)nc12 [Compound 383] | 102 to 959 nM
44 | CCNC(=O)Oc1cccc2ccc(C(=O)NCc3ccc(S(C)(=O)=O)cc3)nc12 [Compound 384] | > 1000 nM and 1030 to 10000 nM
45 | CCOC(=O)N1CCC(NC(=O)c2cccc(Nc3cccnc3)n2)CC1 [Compound 388] | > 1000 nM
46 | CCOC(=O)N1CCC(NC(=O)c2cccc(Nc3ccc4ncccc4c3)n2)CC1 [Compound 389] | > 1000 nM
47 | CCOC(=O)N1CCC(NC(=O)c2cccc(Nc3ccc(N4CCOCC4)cc3)n2)CC1 [Compound 390] | > 1000 nM
48 | CCOC(=O)N1CCC(NC(=O)c2cccc(NCc3cccnc3)n2)CC1 [Compound 391] | > 1000 nM
49 | CCOC(=O)N1CCC(NC(=O)c2cccc(NCc3ccc4c(c3)OCO4)n2)CC1 [Compound 392] | > 1000 nM
50 | CCOC(=O)N1CCC(NC(=O)c2cccc(NCCc3ccncc3)n2)CC1 [Compound 393] | > 1000 nM
51 | CCOC(=O)N1CCC(NC(=O)c2cccc(N(C)CCc3ccncc3)n2)CC1 [Compound 394] | > 1000 nM
52 | CCOC(=O)N1CCC(NC(=O)c2cccc(NCC3CCNCC3)n2)CC1 [Compound 395] | > 1000 nM
53 | CCOC(=O)N1CCC(NC(=O)c2cccc(Nc3ccccn3)n2)CC1 [Compound 396] | > 1000 nM
54 | CCOC(=O)N1CCC(NC(=O)c2cccc(NC(C)=O)n2)CC1 [Compound 399] | > 1000 nM and 1030 to 10000 nM
55 | CCOC(=O)Nc1cccc(C(=O)NC2CCN(C(=O)OCC)CC2)n1 [Compound 400] | > 1000 nM and 1030 to 10000 nM
56 | CCOC(=O)N1CCC(NC(=O)c2cccc(NC(=O)Cc3ccc4c(c3)OCO4)n2)CC1 [Compound 401] | > 1000 nM and 1030 to 10000 nM
57 | CCOC(=O)N1CCC(NC(=O)c2cccc(NC(=O)Cc3ccc(S(C)(=O)=O)cc3)n2)CC1 [Compound 402] | > 1000 nM and 1030 to 10000 nM
58 | C[C@@H](CO)NC(=O)c1cc(-c2ccccc2)cc(C(=O)NCc2ccc(S(C)(=O)=O)cc2)n1 [Compound 407] | > 1000 nM and 1030 to 10000 nM
59 | CCNC(=O)c1cc(Cl)cc(C(=O)NCc2ccc(S(C)(=O)=O)cc2)n1 [Compound 408] | > 1000 nM and 1030 to 10000 nM
